Source: patent US20250011299A1, “PYRIDAZINYL AMINO DERIVATIVES AS ALK5 INHIBITORS” (CHIESI FARMACEUTICI S.P.A., priority 2021, published 2025)

target: T1, human ALK5 (Homo sapiens, UniProt P36897); assay: ADP-GLO Kinases assay of ALK5 enzymatic activity; format: biochemical; conditions: purified recombinant human ALK5, TGFβ1 peptide substrate, pIC50 converted to pKi by Cheng-Prusoff, high ATP protocol (15 μM) for very potent compounds, 25° C.
T1 construct: human ALK5 (recombinant TGF β1 N-term GST-tagged, 80-end); GST (N); purchased
T1 sequence (P36897 80-503 limits assumed): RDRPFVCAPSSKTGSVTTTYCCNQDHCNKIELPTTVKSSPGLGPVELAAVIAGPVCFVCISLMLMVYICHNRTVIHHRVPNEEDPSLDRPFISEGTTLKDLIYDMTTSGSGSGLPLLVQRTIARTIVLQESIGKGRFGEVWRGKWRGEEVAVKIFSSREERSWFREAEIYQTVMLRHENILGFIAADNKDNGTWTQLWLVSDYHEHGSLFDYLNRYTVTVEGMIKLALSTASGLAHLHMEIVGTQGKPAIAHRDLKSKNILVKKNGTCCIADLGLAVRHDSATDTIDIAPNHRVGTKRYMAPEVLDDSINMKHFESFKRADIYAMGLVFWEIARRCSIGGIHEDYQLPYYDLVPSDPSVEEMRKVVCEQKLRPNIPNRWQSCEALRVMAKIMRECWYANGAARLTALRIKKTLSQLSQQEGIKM
Method in brief: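 Purified ALK5 preincubated 15 min with compound, then reacted with substrate and ATP; ADP formed read by ADP-Glo luminescence after 120 min or 60 min reaction, all steps at 25° C. 11-point concentration-response; pIC50 converted to pKi via Cheng-Prusoff.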

| Ki [nM] | Compound |
| --- | --- |
| 0.398 to 3.16 | CN1CCN(CCC(=O)Nc2cc(Nc3cc(-c4cc(Cl)ccc4F)nnc3N3CCC3C(=O)O)ccn2)CC1 (stereo not shown) [Example 151, ammonium 1-[6-(5-chloro-2-fluorophenyl)-4-({2-[3-(4-methylpiperazin-1-yl)propanamido]pyridin-4-yl}amino)pyridazin-3-yl]azetidine-2-carboxylate] |
| ≤ 0.1 | CN1CCN(CCC(=O)Nc2cc(Nc3cc(-c4cc(Cl)ccc4F)nnc3N(C)CC3(CO)CCOC3=O)ccn2)CC1 (stereo not shown) [Example 152, N-(4-{[6-(5-chloro-2-fluorophenyl)-3-({[3-(hydroxymethyl)-2-oxooxolan-3-yl]methyl}(methyl)amino)pyridazin-4-yl]amino}pyridin-2-yl)-3-(4-methylpiperazin-1-yl)propanamide] |
| ≤ 0.1 | O=C(CCN1CCNCC1)Nc1cc(Nc2cc(-c3cc(Cl)ccc3F)nnc2SCCO)ccn1 [Example 153, N-(4-{[6-(5-chloro-2-fluorophenyl)-3-[(2-hydroxyethyl)sulfanyl]pyridazin-4-yl]amino}pyridin-2-yl)-3-(piperazin-1-yl)propanamide] |
| ≤ 0.1 | CN1CCN(CCC(=O)Nc2cc(Nc3cc(-c4cc(Cl)ccc4F)nnc3SC[C@H]3C[C@@H](O)C3)ccn2)CC1 [Example 154, N-(4-{[6-(5-chloro-2-fluorophenyl)-3-{[(3-hydroxycyclobutyl)methyl]sulfanyl}pyridazin-4-yl]amino}pyridin-2-yl)-3-(4-methylpiperazin-1-yl)propanamide] |
| 0.126 to 0.316 | CN1CCCN([C@H]2C[C@@H](C(=O)Nc3cc(Nc4cc(-c5cc(Cl)ccc5F)nnc4SCCO)ccn3)C2)CC1 [Example 155, Cis N-(4-{[6-(5-chloro-2-fluorophenyl)-3-[(2-hydroxyethyl)sulfanyl]pyridazin-4-yl]amino}pyridin-2-yl)-3-(4-methyl-1,4-diazepan-1-yl)cyclobutane-1-carboxamide] |
| ≤ 0.1 | O=C(Nc1cc(Nc2cc(-c3cc(Cl)ccc3F)nnc2SCCO)ccn1)[C@H]1C[C@@H](N2CCN(C3CC3)CC2)C1 [Example 160, Cis N-(4-{[6-(5-chloro-2-fluorophenyl)-3-[(2-hydroxyethyl)sulfanyl]pyridazin-4-yl]amino}pyridin-2-yl)-3-(4-cyclopropylpiperazin-1-yl)cyclobutane-1-carboxamide] |
| 0.126 to 0.316 | O=C(O)C1CCN([C@H]2C[C@@H](C(=O)Nc3cc(Nc4cc(-c5cc(Cl)ccc5F)nnc4SCCO)ccn3)C2)CC1 [Example 167, Cis 1-{3-[(4-{[6-(5-chloro-2-fluorophenyl)-3-[(2-hydroxyethyl)sulfanyl]pyridazin-4-yl]amino}pyridin-2-yl)carbamoyl]cyclobutyl}piperidine-4-carboxylic acid] |
| ≤ 0.1 | CN1CCN(CCC(=O)Nc2cc(Nc3cc(-c4cc(Cl)ccc4F)nnc3SCCO)ncn2)CC1 [Example 176, N-(6-{[6-(5-chloro-2-fluorophenyl)-3-[(2-hydroxyethyl)sulfanyl]pyridazin-4-yl]amino}pyrimidin-4-yl)-3-(4-methylpiperazin-1-yl)propanamide] |
| ≤ 0.1 | C[C@@H]1CN(CCC(=O)Nc2cc(Nc3cc(-c4cc(Cl)ccc4F)nnc3SCCO)ncn2)C[C@H](C)N1 [Example 177, N-(6-{[6-(5-chloro-2-fluorophenyl)-3-[(2-hydroxyethyl)sulfanyl]pyridazin-4-yl]amino}pyrimidin-4-yl)-3-(3,5-dimethylpiperazin-1-yl)propanamide] |

| Compound | Ki [nM] |
| --- | --- |
| CN1C2CC1CN([C@H]1C[C@@H](C(=O)Nc3cc(Nc4cc(-c5cc(Cl)ccc5F)nnc4SCCO)ccn3)C1)C2 [Example 175, Cis N-(4-{[6-(5-chloro-2-fluorophenyl)-3-[(2-hydroxyethyl)sulfanyl]pyridazin-4-yl]amino}pyridin-2-yl)-3-{6-methyl-3,6-diazabicyclo[3.1.1]heptan-3-yl}cyclobutane-1-carboxamide] | ≤ 0.1 |
